In patent US20230339970A1, “CASEIN KINASE 1 DELTA MODULATORS” (priority 2020, published 2023):

Columns and labels:
human CSNK1D = target: T1, human CSNK1D (Homo sapiens, UniProt P48730); assay: Whole Cell nBRET CSNK1D Binding Assay; conditions: living CHO cells stably expressing human CSNK1D tagged with nanoluciferase; NanoBret tracer 130 nM; 2 hours at 37 C
T1 construct: expressed in transfected cells

[1] = target: T2, human recombinant GST cleaved CSNK1D (Homo sapiens, UniProt P48730); assay: Purified Enzyme Assay (ADP-Glo CSNK1D Kinase Assay); assay type: biochemical; conditions: 2 nM CSNK1D; peptide substrate 150 μM; ATP 20 μM; 45 minutes at room temperature
T2 construct: GST (cleaved yes); purchased University of Dundee clone DU 19064
Outline: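 Percent activity derived from ADP-Glo quantification of ADP produced. Reactions: compound dose-response with human recombinant GST-cleaved CSNK1D, ATP and substrate peptide PLSRTL-pS-VASLPGL, incubated 45 min at room temperature.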

T1 sequence (P48730 whole entry): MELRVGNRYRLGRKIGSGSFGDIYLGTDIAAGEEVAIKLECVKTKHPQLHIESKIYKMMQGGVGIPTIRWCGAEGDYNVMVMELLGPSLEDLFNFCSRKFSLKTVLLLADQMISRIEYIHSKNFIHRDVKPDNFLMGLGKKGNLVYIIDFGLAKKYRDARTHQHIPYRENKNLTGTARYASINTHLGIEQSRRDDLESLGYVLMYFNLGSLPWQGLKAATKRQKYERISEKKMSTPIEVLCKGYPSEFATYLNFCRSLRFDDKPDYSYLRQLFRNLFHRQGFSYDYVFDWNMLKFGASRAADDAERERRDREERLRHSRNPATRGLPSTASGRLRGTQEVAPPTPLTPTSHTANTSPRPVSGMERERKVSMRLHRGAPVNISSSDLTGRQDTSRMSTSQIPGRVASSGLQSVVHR
T2 sequence (P48730 whole entry): as above

Row | Structure (SMILES) | IC50 (human CSNK1D) [nM] | IC50 [1] [nM]
1 | [2H]C([2H])([2H])[C@]1(C(F)(F)F)Cn2nc(-c3ccc(F)cn3)c(-c3cc(C)nc4[nH]nc(C)c34)c2CO1 (single isomer, unassigned) [Example 428, (*R)-3-(3,6-Dimethyl-1H-pyrazolo[3,4-b]pyridin-4-yl)-2-(5-fluoropyridin-2-yl)-6-(methyl-d3)-6-(trifluoromethyl)-6,7-dihydro-4H-pyrazolo[5,1-c][1,4]oxazine] | 76 | 9
2 | Fc1ccc(-c2nn3c(c2-c2ccnc4[nH]ncc24)CCC2(C3)CC2(F)F)cc1 (single isomer, unassigned) [Example 326, (*S)-2,2-Difluoro-2′-(4-fluorophenyl)-3′-1H-pyrazolo[3,4-b]pyridin-4-yl)-4′,5′-dihydro-7′H-spiro[cyclopropane-1,6′-pyrazolo[1,5-a]pyridine]] | 23 | 6
3 | Cn1cc2nccc(-c3c(-c4ccc(F)cn4)nn4c3COC(C)(C)C4)c2n1 [Example 138, 2-(5-Fluoropyridin-2-yl)-6,6-dimethyl-3-(2-methyl-2H-pyrazolo[4,3-b]pyridin-7-yl)-6,7-dihydro-4H-pyrazolo[5,1-c][1,4]oxazine] | 999 | 106
4 | [2H]C([2H])([2H])C1(C([2H])([2H])[2H])Cn2nc(-c3ccc(F)cn3)c(-c3ccn4nccc4c3)c2CO1 [Example 396, 2-(5-Fluoropyridin-2-yl)-6,6-bis(methyl-d3)-3-(pyrazolo[1,5-a]pyridin-5-yl)-6,7-dihydro-4H-pyrazolo[5,1-c][1,4]oxazine] | 292 | 22
5 | C[C@H]1n2nc(-c3ccc(F)cn3)c(-c3ccnc4[nH]ncc34)c2COC1(C)C (single isomer, unassigned) [Example 173, (*R)-2-(5-Fluoropyridin-2-yl)-6,6,7-trimethyl-3-(1H-pyrazolo[3,4-b]pyridin-4-yl)-6,7-dihydro-4H-pyrazolo[5,1-c][1,4]oxazine] | 840 | 42
6 | C[C@@H]1CCc2c(-c3ccnc4[nH]ncc34)c(-c3ccc(F)cn3)nn21 [Example 20, 4-[(6R)-2-(5-Fluoro-2-pyridyl)-6-methyl-5,6-dihydro-4H-pyrrolo[1,2-b]pyrazol-3-yl]-1H-pyrazolo[3,4-b]pyridine] | 411 | 20
7 | CCn1ncc2cc(-c3c(-c4ccc(F)cn4)nn4c3COC(C)(C)C4)cnc21 [Example 141, 3-(1-Ethyl-1H-pyrazolo[3,4-b]pyridin-5-yl)-2-(5-fluoropyridin-2-yl)-6,6-dimethyl-6,7-dihydro-4H-pyrazolo[5,1-c][1,4]oxazine] | 5690 | 344
8 | Fc1ccc(-c2nn3c(c2-c2ccnc4cn[nH]c24)OCC(F)(F)C3)cc1 [Example 468, 6,6-Difluoro-2-(4-fluorophenyl)-3-(1H-pyrazolo[4,3-b]pyridin-7-yl)-5,7-dihydropyrazolo[5,1-b][1,3]oxazine] | 187 | 25
9 | C[C@@H]1[C@@H](C)OCc2c(-c3ccnc4[nH]ncc34)c(-c3ccc(F)cc3)nn21 (relative stereo) [Example 114, (6*R,7*R)-2-(4-Fluorophenyl)-6,7-dimethyl-3-(1H-pyrazolo[3,4-b]pyridin-4-yl)-6,7-dihydro-4H-pyrazolo[5,1-c][1,4]oxazine] | 55 | 6

More lines, in order of falling IC50 (human CSNK1D), values ahead:

Row | IC50 (human CSNK1D) [nM] | IC50 [1] [nM] | Structure (SMILES)
10 | 1550 | 70 | Cc1nc2[nH]nc(C)c2c(-c2c(-c3ccc(F)cn3)nn3c2CC[C@]2(C3)CC2(F)F)c1F (single isomer, unassigned) [Example 334, (*R)-2,2-Difluoro-3′-(5-fluoro-3,6-dimethyl-1H-pyrazolo[3,4-b]pyridin-4-yl)-2′-(5-fluoropyridin-2-yl)-4′,5′-dihydro-7′H-spiro[cyclopropane-1,6′-pyrazolo[1,5-a]pyridine]]
11 | 1320 | 32 | Fc1ccc(-c2nn3c(c2-c2ccnc4[nH]ncc24)OCC2(C3)CC2(F)F)nc1 (single isomer, unassigned) [Example 479, (*R)-2,2-Difluoro-2′-(5-fluoropyridin-2-yl)-3′-1H-pyrazolo[3,4-b]pyridin-4-yl)-5′H,7′H-spiro[cyclopropane-1,6′-pyrazolo[5,1-b][1,3]oxazine]]
12 | 373 | 13 | Cc1nc(-c2c(-c3ccc(F)cc3)nn3c2CC[C@@]2(C3)CC2(F)F)c2cn[nH]c2n1 (single isomer, unassigned) [Example 335, (*S)-2,2-Difluoro-2′-(4-fluorophenyl)-3′-(6-methyl-1H-pyrazolo[3,4-d]pyrimidin-4-yl)-4′,5′-dihydro-7′H-spiro[cyclopropane-1,6′-pyrazolo[1,5-a]pyridine]]
13 | 210 | 11 | Cc1cc(-c2c(-c3ncc(F)cc3F)nn3c2CCCC3)c2cn[nH]c2n1 [Example 37, 4-[2-(3,5-Difluoro-2-pyridyl)-4,5,6,7-tetrahydropyrazolo[1,5-a]pyridin-3-yl]-6-methyl-1H-pyrazolo[3,4-b]pyridine]
14 | 110 | 4 | COCC1(F)CCc2c(-c3ccnc4[nH]ncc34)c(-c3ccc(F)cn3)nn2C1 (single isomer, unassigned) [Example 301, (*R)-4-[6-Fluoro-2-(5-fluoro-2-pyridyl)-6-(methoxymethyl)-5,7-dihydro-4H-pyrazolo[1,5-a]pyridin-3-yl]-1H-pyrazolo[3,4-b]pyridine]
15 | 65 | 5 | Fc1ccc(-c2nn3c(c2-c2ccnc4[nH]ncc24)CCC2C3C2(F)F)nc1 (racemic) [Example 58, (Racemic) 6,6-Difluoro-2-(5-fluoropyridin-2-yl)-3-(1H-pyrazolo[3,4-b]pyridin-4-yl)-5,5a,6,6a-tetrahydro-4H-cyclopropa[e]pyrazolo[1,5-a]pyridine]
16 | 41 | 4 | C[C@H]1CCCc2c(-c3ccnc4[nH]ncc34)c(-c3ccc(F)cc3)nn21 (single isomer, unassigned) [Example 40, (*S)-4-[2-(4-Fluorophenyl)-7-methyl-4,5,6,7-tetrahydropyrazolo[1,5-a]pyridin-3-yl]-1H-pyrazolo[3,4-b]pyridine]
17 | 23 | 3 | CCC(=O)Nc1cc(-c2c(-c3ccc(F)cn3)nn3c2OCC(C)C3)ccn1 (centres unmarked) [Example 442, N-(4-(2-(5-Fluoropyridin-2-yl)-6-methyl-6,7-dihydro-5H-pyrazolo[5,1-b][1,3]oxazin-3-yl)pyridin-2-yl)propionamide]
18 | 5 | 4 | Cc1nc2[nH]nc(Cl)c2c(-c2c(-c3ccc(F)cn3)nn3c2CCC3)c1F [Example 224, 3-Chloro-5-fluoro-4-(2-(5-fluoropyridin-2-yl)-5,6-dihydro-4H-pyrrolo[1,2-b]pyrazol-3-yl)-6-methyl-1H-pyrazolo[3,4-b]pyridine]
19 | 3 | 1 | Fc1ccc(-c2nn3c(c2-c2ccnc4[nH]ncc24)[C@@H]2CC[C@H]3C2)cc1 (single isomer, unassigned) [Example 60, 4*R,7*S)-2-(4-Fluorophenyl)-3-(1H-pyrazolo[3,4-b]pyridin-4-yl)-4,5,6,7-tetrahydro-4,7-methanopyrazolo[1,5-a]pyridine]
